Measurements taken from ChEMBL document CHEMBL3045206, “A facile synthesis of novel herbicidal 1-phenyl-piperazine-2,6-diones” (2005).

Assays:
Type in all cases: functional
Abutilon theophrasti = assay: Herbicidal activity against Abutilon theophrasti (velvetleaf) plant at 1200 g/ha applied as spray during post-emergence after 2 weeks under green house conditions
Solanum lycopersicum = assay: Herbicidal activity against Solanum lycopersicum (tomato) plant at 1200 g/ha applied as spray during post-emergence after 2 weeks under green house conditions
Tagetes = assay: Herbicidal activity against Tagetes (marigold) plant at 1200 g/ha applied as spray during post-emergence after 2 weeks under green house conditions

Structure (SMILES) | Activity (Abutilon theophrasti) [%] | Activity (Solanum lycopersicum) [%] | Activity (Tagetes) [%]
O=C1CN2CCCCC2C(=O)N1c1cc(Cl)c(Cl)cc1F (configuration not stated) | 90 | 75 | 0
O=C1CN2CCCCC2C(=O)N1c1ccc(Cl)cc1F (configuration not stated) | 80 | 35 | 15
COc1cc(N2C(=O)CN3CCCCC3C2=O)c(F)cc1Cl (configuration not stated) | 50 | 15 | 0
O=C1CN2CCCCC2C(=O)N1c1cc(OC2CCCC2)c(Cl)cc1F (configuration not stated) | 90 | 60 | 10
O=C1CN2CCCC2C(=O)N1c1cc(OC2CCCC2)c(Cl)cc1F (configuration not stated) | 50 | 0 | 0
C#CCOc1cc(N2C(=O)CN(C)CC2=O)c(F)cc1Cl | 95 | 75 | 0
CN1CC(=O)N(c2cc(OC3CCCC3)c(Cl)cc2F)C(=O)C1 | 75 | 0 | 0
CC(C)(C)N1CC(=O)N(c2cc(OC3CCCC3)c(Cl)cc2F)C(=O)C1 | 25 | 0 | 0
CC(C)OC(=O)c1cc(N2C(=O)CN(Cc3ccccc3)CC2=O)c(F)cc1Cl | 0 | 10 | 0
